Source: patent publication US8546579B2, “Bicycloheteroaryl compounds as P2X7 modulators and uses thereof” (Evotec (US) Inc., priority 2006, dated 2013)
pIC50: −log10 of the molar value. Where two headings read alike, the source gives them in different places. Each block holds one compound with its values, some of them ahead of it.

Biological target: T1, P2X7 receptor (Homo sapiens, UniProt Q99572)
T1 construct: host or cells: THP-1 cells differentiated with LPS and IFN-γ
T1 sequence (Q99572 1-595): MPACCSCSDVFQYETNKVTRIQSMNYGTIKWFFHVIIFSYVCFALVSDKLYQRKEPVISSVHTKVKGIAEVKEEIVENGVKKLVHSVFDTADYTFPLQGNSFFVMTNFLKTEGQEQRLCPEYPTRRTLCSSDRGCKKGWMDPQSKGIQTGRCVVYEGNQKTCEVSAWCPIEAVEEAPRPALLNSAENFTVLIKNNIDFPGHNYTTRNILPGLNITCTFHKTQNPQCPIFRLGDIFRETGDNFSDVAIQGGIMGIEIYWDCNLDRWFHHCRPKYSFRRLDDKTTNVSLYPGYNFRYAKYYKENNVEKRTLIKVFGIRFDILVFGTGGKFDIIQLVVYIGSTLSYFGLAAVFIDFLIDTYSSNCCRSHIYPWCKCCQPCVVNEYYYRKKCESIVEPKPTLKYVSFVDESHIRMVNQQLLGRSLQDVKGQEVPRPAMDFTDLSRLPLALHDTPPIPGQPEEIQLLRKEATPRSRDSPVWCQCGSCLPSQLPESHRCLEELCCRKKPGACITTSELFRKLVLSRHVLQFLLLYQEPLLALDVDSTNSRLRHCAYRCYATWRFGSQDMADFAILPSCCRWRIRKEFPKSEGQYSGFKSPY
Test: IL-1β release assay in differentiated THP-1 cells stimulated with BzATP (Example 9)
Type: cell-based
Design: inhibition: dose or concentration left out as unconfirmed
Settings: for inhibition at 0.3 µM: 0.3 μM compound, read-out: IL-1β % Inhib. @ 0.3 μM; for inhibition at 0.3 µM / inhibition at 0.1 µM: differentiated THP-1 cells, BzATP 250 uM; for pIC50: THP-1 cells, BzATP-stimulated IL-1β release, four parameter logistic fit; for inhibition at 0.1 µM: 0.1 μM compound, symbols * to ****, read-out: IL-1β % Inhib. (asterisk symbols: at 0.1 μM); for inhibition: THP-1, read-out: IL-1β % Inhib.
Outline: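 THP-1 cells differentiated 16 h with LPS and IFN-γ (100 ng/mL each), re-primed 2 h with LPS, then compound-pretreated 30 min before 250 uM BzATP for 45 min. Supernatant IL-1β quantified by ELISA; background-adjusted percent inhibition fitted to four-parameter logistic for IC50.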

- inhibition at 0.3 µM ('+' class symbols): 26 to 50%
Structure (SMILES): CN(C)CCn1ccc2c(NC(=O)CC3CC4CC[C@H]3C4)cccc2c1=O (some centres unmarked) [Compound 1167]

- inhibition at 0.3 µM ('+' class symbols): 0 to 25%
Structure (SMILES): COc1ccc(CC(=O)Nc2cccc3c(=O)n(CC4CCOCC4)ccc23)cc1C [Compound 1127]

- inhibition at 0.3 µM (symbols + to ++++): 0 to 25%
Structure (SMILES): Cc1cccc(CC(=O)Nc2cccc3c(=O)n(C)ccc23)c1 [Compound 1298]

- inhibition at 0.3 µM (symbols + to ++++): 26 to 50%
- pIC50: 6.22
Structure (SMILES): CC(=O)OCCn1ccc2c(NC(=O)Cc3cc(C(F)(F)F)ccc3C(F)(F)F)cccc2c1=O [Compound 1382]

- inhibition at 0.3 µM (symbols + to ++++): 0 to 25%
Structure (SMILES): Cc1cc(Cl)ccc1C(=O)Nc1cccc2c(=O)n(CC(C)(C)C)ccc12 [Compound 1269]

- inhibition at 0.3 µM ("+" class symbols): ≥ 76%
- pIC50: 7.59
Structure (SMILES): CC(c1ccccn1)n1ccc2c(NC(=O)Cc3cccc(C(F)(F)F)c3F)cccc2c1=O (centres unmarked) [Compound 1633, 2-(2-Fluoro-3-trifluoromethyl-phenyl)-N-[1-oxo-2-(1-pyridin-2-yl-ethyl)-1,2-dihydro-isoquinolin-5-yl]-acetamide]

- inhibition at 0.1 µM: 0 to 25%
Structure (SMILES): O=C(Cc1cccc2ccccc12)Nc1cccc2c(=O)n(Cc3cccnc3)ccc12 [Compound 1350]

- inhibition at 0.3 µM ("+" class symbols): 26 to 50%
- pIC50: 6.34
Structure (SMILES): CC1(C)CCCC(O)(CC(=O)Nc2cccc3c(=O)n(CCS(C)(=O)=O)ccc23)C1 (centres unmarked) [Compound 1629]

- inhibition: 0 to 25%
Structure (SMILES): COc1ccc(CC(=O)Nc2cccc3c(=O)n(CCCN4CCCC4=O)ccc23)cc1C [Compound 1539]

- inhibition at 0.3 µM ('+' class symbols): 0 to 25%
Structure (SMILES): COc1ccc(C(=O)Nc2cccc3c(=O)n(CCN4CCOCC4)ccc23)cc1Cl [Compound 1043]

- inhibition at 0.3 µM (symbols + to ++++): 0 to 25%
Structure (SMILES): O=C(Nc1cccc2c(=O)n(Cc3cccnc3)ccc12)c1cccc2c1OCCO2 [Compound 1363]

- inhibition: 26 to 50%
Structure (SMILES): COc1cccc(CCC(=O)Nc2cccc3c(=O)n(CCN(C)C)ccc23)c1 [Compound 1400]

- inhibition at 0.3 µM ("+" class symbols): 0 to 25%
- pIC50: < 6.00
Structure (SMILES): O=C(Cc1cccc(C(F)(F)F)c1F)Nc1cccc2c(=O)n(Cc3ccc(C(F)(F)F)nc3)ccc12 [Compound 1626]

- inhibition at 0.3 µM (symbols + to ++++): 0 to 25%
Structure (SMILES): COc1cccc(CC(=O)Nc2cccc3c(=O)n(CC(C)(C)C)ccc23)c1 [Compound 1257]

- inhibition at 0.3 µM ('+' class symbols): 0 to 25%
Structure (SMILES): COCCn1ccc2c(NC(=O)C3CCC(C)CC3)cccc2c1=O (centres unmarked) [Compound 1061]

- inhibition at 0.3 µM ('+' class symbols): 0 to 25%
Structure (SMILES): COc1ccccc1CC(=O)Nc1cccc2c(=O)n(CC3CCOCC3)ccc12 [Compound 1099]

- inhibition: 0 to 25%
Structure (SMILES): CCOc1ccc(CC(=O)Nc2cccc3c(=O)n(CCCN4CCCC4=O)ccc23)cc1 [Compound 1523]

- inhibition at 0.3 µM ("+" class symbols): 0 to 25%
- pIC50: < 6.00
Structure (SMILES): CN(C)CCn1ccc2c(NC(=O)Cc3ccc(C(F)(F)F)cc3C(F)(F)F)cccc2c1=O [Compound 1618]

- inhibition at 0.3 µM ('+' class symbols): 0 to 25%
Structure (SMILES): O=C(Nc1cccc2c(=O)n(CCN3CCOCC3)ccc12)c1ccc(-c2ccccc2)o1 [Compound 1040]

- inhibition: 0 to 25%
Structure (SMILES): Cc1ccccc1CCC(=O)Nc1cccc2c(=O)n(Cc3cccnc3)ccc12 [Compound 1406]

- inhibition at 0.3 µM (symbols + to ++++): 0 to 25%
Structure (SMILES): CCOc1ccccc1CC(=O)Nc1cccc2c(=O)n(CCN3CCOCC3)ccc12 [Compound 1233]

- inhibition at 0.3 µM (symbols + to ++++): 0 to 25%
Structure (SMILES): COc1cc(CC(=O)Nc2cccc3c(=O)n(CC(C)(C)C)ccc23)cc(OC)c1 [Compound 1266]

- inhibition at 0.3 µM ('+' class symbols): 0 to 25%
Structure (SMILES): CN(C)CCn1ccc2c(NC(=O)c3ccc(Cl)cc3Cl)cccc2c1=O [Compound 1138]

- inhibition at 0.3 µM ("+" class symbols): 0 to 25%
- pIC50: < 6.00
Structure (SMILES): CO[C@@](C(=O)Nc1cccc2c(=O)n(CCN(C)C)ccc12)(c1ccccc1)C(F)(F)F [Compound 1615]

- inhibition: 0 to 25%
Structure (SMILES): O=C(CCCc1ccccc1)Nc1cccc2c(=O)n(Cc3ccc(OC(F)(F)F)cc3)ccc12 [Compound 1586]

- inhibition at 0.3 µM (symbols + to ++++): 0 to 25%
Structure (SMILES): CCOc1ccccc1CC(=O)Nc1cccc2c(=O)n(C)ccc12 [Compound 1307]

- inhibition at 0.1 µM: 0 to 25%
Structure (SMILES): COc1ccc(CCC(=O)Nc2cccc3c(=O)n(Cc4cccnc4)ccc23)cc1 [Compound 1349]

- inhibition at 0.3 µM ('+' class symbols): 0 to 25%
Structure (SMILES): COc1ccc(OC)c(CC(=O)Nc2cccc3c(=O)n(CC4CCOCC4)ccc23)c1 [Compound 1100]

- inhibition: 0 to 25%
Structure (SMILES): Cc1ccc(Cl)c(C(=O)Nc2cccc3c(=O)n(CCCN4CCCC4=O)ccc23)c1 [Compound 1540]
